This is an account of results in patent publication US20140303092A1 (CHIMERIX, INC., priority 2011, published 2014).

This assay relates to CMV. In words: In vitro antiviral activity in cell culture, CMV. In kind it is cell-based, cytomegalovirus. The conditions noted are these: dsDNA viruses including CMV and AdV.

On to `CCCCCCCCCCCCCCCCOCCCOP(=O)(O)COC(CO)Cn1ccc(N)nc1=O` (stereo not shown) [HDP-CDV], for which the “higher potency in comparison to cidofovir, ganciclovir and other nucleoside analogs” value is given as 100 to 1000 fold.
